In PMC6368403, “Identification of a bilirubin receptor that may mediate a component of cholestatic itch” (eLife, 2019):
Values joined by “and” are separate entries in the source; they are usually repeats but may differ in a detail not shown here. Equal values may be shown once.

Assays:
[1] = system: murine peritoneal mast cells; test: Mouse peritoneal mast cell histamine release assay; format: cell-based; conditions: 100 µM bilirubin
Procedure: Adult male mice 8–12 weeks of age were sacrificed through CO2 inhalation. A total of 25 mL of mast cell dissociation media (MCDM; HBSS with 3% fetal bovine serum and 10 mM HEPES, pH 7.2) was chilled on ice before being used to make two sequential peritoneal lavages. Lavages were combined and spun at 200 g. […] Mast cells were recovered in the pellet. Mast cells were re-suspended in DMEM with 10% fetal bovine serum (FBS) and 25 ng/mL recombinant mouse stem cell factor (Sigma). Mast cells were purified as described and allowed to recover for 2 hr at 37°C. Cells were then seeded in 96-well plates coated with […] fibronectin at 300 cells/well. Plates were incubated at 37°C for 45 min before assay. For the assay, all compounds tested were diluted in CIB. Five minutes after compound addition, supernatant was aspirated and frozen at −80°C until histamine levels were determined with an HTRF histamine assay kit (Cisbio Assays) according to the manufacturer’s instructions.

[2] = biological target: T1, MRGPRA1 (Mus musculus, UniProt Q91WW5); test: [35S]GTPγS binding to MRGPRA1 membrane complexes; format: biochemical; conditions: 50 μM bilirubin
T1 construct: expressed in transfected cells
T1 sequence (Q91WW5 1-304): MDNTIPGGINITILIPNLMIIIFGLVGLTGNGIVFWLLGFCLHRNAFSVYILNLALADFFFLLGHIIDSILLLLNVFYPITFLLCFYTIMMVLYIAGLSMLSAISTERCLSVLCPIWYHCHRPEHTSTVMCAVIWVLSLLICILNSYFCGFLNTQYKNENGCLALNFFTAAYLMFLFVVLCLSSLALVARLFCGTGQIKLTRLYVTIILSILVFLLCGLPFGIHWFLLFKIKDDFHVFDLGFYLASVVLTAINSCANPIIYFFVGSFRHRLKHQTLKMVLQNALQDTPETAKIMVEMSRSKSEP
Procedure: (§1) MRGPR activation was determined by measuring binding of a radiolabelled and non-hydrolyzable form of GTP, [^35S]guanosine-5’-(γ-thio)triphosphate ([^35S]GTPγS) as previously described ([Vasavda et al., 2017]). Briefly, 10 µg of crude membrane fractions were diluted into 175 µL assay buffer (50 mM HEPES, 5 mM MgCl2, 100 mM NaCl, 1 mM EDTA, 0.1% […]) supplemented with 10 µM GDP and incubated at room temperature for 5 min. Membranes were then incubated an additional 1 min in a final volume of 199 μL assay buffer supplemented with 50 μM bilirubin. Samples were then brought to 200 μL with the addition of 10 nM [^35S]GTPγS. Samples were incubated for 2 hr at 4°C with gentle agitation. The experiment was terminated by rapid filtration onto GF/B filters and washed three times with wash buffer (50 mM Tris-HCl, 5 mM MgCl2, and 50 mM NaCl at pH 7.4). Filters were then immersed in scintillation cocktail and counted. Nonspecific binding was determined by competition with 10 μM unlabelled GTPγS. GTPγS binding assays were performed as two independent experiments, in triplicate.

[3] = biological target: T2, MRGPRX4 (Homo sapiens, UniProt Q96LA9); test: [35S]GTPγS binding to MRGPRX4 membrane complexes; format: biochemical; conditions: 50 μM bilirubin
T2 construct: expressed in transfected cells
T2 sequence (Q96LA9 whole entry): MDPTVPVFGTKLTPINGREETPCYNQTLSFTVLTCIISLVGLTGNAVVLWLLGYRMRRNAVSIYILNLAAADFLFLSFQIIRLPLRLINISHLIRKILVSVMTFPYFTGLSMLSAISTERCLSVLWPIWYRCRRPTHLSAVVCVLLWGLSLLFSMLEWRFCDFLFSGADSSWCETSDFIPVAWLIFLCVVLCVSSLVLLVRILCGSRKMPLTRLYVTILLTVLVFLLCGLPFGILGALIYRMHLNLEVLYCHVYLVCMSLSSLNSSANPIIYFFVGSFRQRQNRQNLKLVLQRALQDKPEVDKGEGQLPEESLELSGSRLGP
Procedure: as §1

[4] = system: Mrgpr-cluster KO DRG neurons; test: Ca2+ imaging of Mrgpr-cluster KO DRG neurons infected with lentivirus encoding Mrgpra1, MRGPRX4 or MRGPRX3; format: cell-based, mouse; conditions: 50 µM bilirubin (Fig 3J)
Procedure: DRGs were incubated with Fluo-4 AM 24 hr after dissociation (native genotype) or 48 hr after dissociation (virally transduced). Unless otherwise noted, cells were imaged for 20 seconds to establish a baseline before compounds were added. After 30 s, a 2 min wash was applied before addition of another substances. At the end of every imaging trial, 50 mM KCl was added as a positive control. […] For ruthenium red inhibitor experiments, neurons were incubated with 10 µM ruthenium red for 5 min prior to imaging. Percentage activated was determined as earlier described.
DRG neurons from all spinal levels were collected in cold DH10 media (90% Dulbecco’s modified Eagle’s medium (DMEM)/F-12, 10% FBS, penicillin (100 U/mL), and streptomycin (100 μg/mL)). DRGs were digested with a dispase (5 mg/ml)/collagenase type I (1 mg/ml) enzyme mixture at 37°C for 45 min. After trituration, cells were spun at 300 g and re-suspended in DH10 before being plated on glass coverslips coated with poly-D-lysine (0.5 mg/ml) and laminin (10 μg/ml, Invitrogen). DRGs were cultured with DH10 supplemented with 50 ng/mL NGF at 37°C.
Lentiviruses encoding various cDNA for MRGPRs were generated using psPAX2 and pMD2.G. Virus was pelleted by centrifugation at 100,000 g for 4 hr, gently washed with twice with DH10 medium, and suspended in DH10. One day after DRG isolation and culture, DRGs were infected with lentivirus […]. The following morning, medium was completely replaced with fresh DH10 supplemented with 50 ng/mL NGF. 24 hr after infection, cells were processed for calcium imaging.

[5] = system: DRG sensory neurons; test: In vivo DRG calcium imaging in Pirt-Cre; lsl-GCaMP6s animals; design: species or system mouse; conditions: 5 μL of 100 μM bilirubin into the paw of GCaMP6s mice
Procedure: Adult mice expressing Pirt-Cre and lox-stop-lox GCaMP6s were anesthetized by i.p. injection of chloral hydrate (20 μl/gram of 25 mg/ml solution). The back was shaved and disinfected with alcohol before application of ophthalmic ointment (Lacrilube; Allergen Pharmaceuticals). A dorsal laminectomy was performed below the lumbar enlargement (L5) targeting S1. During the procedure, care was taken to keep dura intact. A 2 cm incision was made at the lumbar enlargement. 0.1 mL of 1% lidocaine was injected into paravertebral muscles before dissection to expose L3–L5 vertebrae. Using rongeurs, the surface aspect of the L4 DRG transverse process was removed and the underlying DRG exposed. Mice were laid abdomen-down on a custom-designed microscope stage and the spinal column was secured at two sites using clamps. Images were acquired using a laser-scanning confocal microscope (Leica LSI microscope) equipped with a […] 0.5 NA macro dry objective and fast EM-CCD camera. Live images were acquired at 8 to 10 frames in frame-scan mode per 7–8 s, at depths of […] below the dura with the DRG in the focal plane. […]
Raw image stacks were collected, deconvoluted, and imported into ImageJ (NIH). […] Calcium signaling amplitudes were expressed as Ft /F0 as a function of time. […]

GTP binding to MRGPRA1 membrane complexes [2]: increased GTP binding | [35S]GTPγS binding ([2]; MRGPRA1 membrane complexes (Fig 2K)): 197 and 184 and 159 | GTP binding to MRGPRX4 membrane complexes [3]: increased GTP binding | [35S]GTPγS binding ([3]; MRGPRX4 membrane complexes (Fig 2K)): 175 and 229 and 223
Compound: C=CC1=C(C)/C(=C/c2[nH]c(Cc3[nH]c(/C=C4\NC(=O)C(C)=C4C=C)c(C)c3CCC(=O)O)c(CCC(=O)O)c2C)NC1=O [bilirubin, bilirubin IXα]
Mast cell histamine release [1]: did not elicit a calcium response or induce appreciable histamine release | Percent activated neurons ([4]; MRGPRX4-infected Mrgpr-cluster KO DRG): 32% | Percent activated neurons ([4]; Mrgpra1-infected Mrgpr-cluster KO DRG): 14% | Percent activated neurons ([4]; uninfected Mrgpr-cluster KO DRG): 1.3% | Activation of DRG sensory neurons in vivo [5]: activated numerous DRG sensory neurons
